Experimental data as given in patent US20250255929A1, “METHODS FOR REDUCING RISKS ASSOCIATED WITH HEART FAILURE AND FACTORS ASSOCIATED THEREWITH” (Stealth BioTherapeutics Inc., priority 2012, published 2025).
Values joined by “and” are separate entries in the source; they are usually repeats but may differ in a detail not shown here. Identical values can stand only once. Square brackets hold non-standard residues; d marks the D form. Ends that are not written are not given here. Dmt = Cc1cc(O)cc(C)c1C[C@H](N)C(=O)O

Columns and labels:
Format in all cases: in vivo
[1] = tested on: C-reactive protein; experiment: Plasma C-reactive protein (canine ELISA) in dog model of heart failure; parameters: C-reactive protein concentration, BL, Mean / C-reactive protein concentration, 12 Wk, Mean / C-reactive protein concentration, BL / C-reactive protein concentration, 6 Wk / C-reactive protein concentration, 12 Wk: unit not given here; conditions: for plasma CRP levels (FIG. 1), in words: HF dogs
Method: Heart failure was induced in dogs via multiple sequential intracoronary microembolizations as described in Sabbah, et al., Am J Physiol. (1991) 260:H1379-84, herein incorporated by reference in its entirety.
Half the dogs were subsequently treated with the mitochondrial peptide; the other half were treated with drug vehicle and served as controls. Peptide treatment was started upon induction of heart failure (HF), defined as left ventricular ejection fraction of approximately 30%. Peripheral venous blood samples were obtained from all dogs at the following time points: 1) when the dogs were normal (baseline, prior to the induction of heart failure); 2) when the dogs were induced into heart failure; 3) at 6 weeks after initiating therapy with the mitochondrial peptide or vehicle (HF+peptide, or HF+vehicle) both administered once daily as subcutaneous injections; and 4) at 12 weeks after initiating therapy with the mitochondrial peptide or vehicle. The daily dose of the peptide was 0.5 mg/kg/day administered […]. Blood samples were drawn on EDTA anticoagulant and were centrifuged at 2,500 RPM and the plasma extracted, aliquoted in 1 ml volumes into crystat tubes and stored at −70° C. until assayed. Once the follow-up was completed in all dogs, the plasma samples were thawed to room temperature and CRP was assayed using a canine specific ELISA kit (ALPCO: Cat #41-CRPCA-E01). The calorimetric method was used to assess the amount of CRP in plasma. CRP concentration was expressed as […].

[2] = tested on: reactive oxygen species (ROS); experiment: Plasma ROS (luminol chemiluminescence) in dog model of heart failure; conditions: for plasma ROS levels (FIG. 2), in words: HF dogs
Method: Heart failure was induced as described in Example 1. […] Half the dogs were treated with the peptide; the other half were treated with drug vehicle and served as controls. Peptide treatment was started upon induction of heart failure (HF), defined as left ventricular ejection fraction of approximately 30%. The daily dose of the peptide was 0.5 mg/kg/day administered intravenously. Blood samples were drawn on EDTA anticoagulant and were centrifuged at 2,500 RPM and the plasma extracted, aliquoted in 1 ml volumes into crystat tubes and stored at −70° C. until assayed. Once the follow-up was completed in all dogs, the plasma samples were thawed to room temperature and ROS was assayed. To assess ROS levels in the plasma, luminol (5-amino-2,3 dihydro-1,4 phtalazindione) was added to the samples. ROS levels were then assessed by chemiluminescence activity.

[3] = tested on: interleukin-6 (IL-6); experiment: Plasma IL-6 (double antibody sandwich ELISA) in dog model of heart failure; conditions: for plasma IL-6 levels (FIG. 3), in words: HF dogs
Method: The methods of Example 1 were used to induce heart failure, administer peptide or vehicle and collect plasma. Fourteen dogs were used in this example. Half the dogs were treated with the mitochondrial peptide; the other half were treated with drug vehicle and served as controls. Peptide treatment was started in both groups upon induction of heart failure (HF), defined as left ventricular ejection fraction of approximately 30%.
IL-6 was quantified in EDTA-plasma using the double antibody sandwich ELISA technique. Briefly, IL-6 (Canine IL-6 Duo Set, Cat #DY1609) was purchased from R&D Systems. The assay was performed based on instructions provided by the supplier with minor modifications. The amount of EDTA-plasma incubated with the antibody plate was 150 μl and incubation time was 18 hours at 4° C. Using standard curves and software, the concentration of IL-6 was expressed as pg/ml.

[4] = plasma, individual HF dogs, 6 weeks after initiating therapy, 0.5 mg/kg/day
[5] = plasma, peptide group, individual dogs, baseline (before HF and treatment)
[6] = plasma, peptide group, individual dogs, heart failure prior to initiating therapy

**Q.** With “D-Arg-2′,6′-Dmt-Lys-Phe-NH2 ([dR][Dmt]KF-NH2) [aromatic-cationic peptide]” as the substance, how does the “plasma CRP levels (FIG. 1), in words” value ([1]; treatment for 12 weeks) read?
**A.** normal or near normal levels

**Q.** And the “plasma CRP levels (FIG. 1), in words” value ([1]; treatment for six weeks)?
**A.** reduced CRP levels

**Q.** What about the “C-reactive protein concentration, 6 Wk” value [1, 4] of the same substance?
**A.** 1.12

**Q.** And the “C-reactive protein concentration, 12 Wk, Mean” value ([1]; plasma, mean of 3 HF dogs, 12 weeks after initiating therapy, 0.5 mg/kg/day)?
**A.** 1.42

**Q.** And the “C-reactive protein concentration, BL, Mean” value ([1]; plasma, peptide group mean (3 dogs), baseline, prior to induction of heart failure (before treatment))?
**A.** 1.82

**Q.** What about the “plasma ROS levels (FIG. 2), in words” value ([2]; treatment for 12 weeks) of the same substance?
**A.** near normal levels

**Q.** And the “plasma ROS levels (FIG. 2), in words” value ([2]; treatment for six weeks)?
**A.** reduced ROS levels

**Q.** What about the “Reactive oxygen species concentration, 6 Wk” value [2, 4] of the same substance?
**A.** 18.4 RLU×10^5/ml and 16.6 RLU×10^5/ml and 15.1 RLU×10^5/ml and 23.3 RLU×10^5/ml

**Q.** What about the “Reactive oxygen species concentration, 12 Wk” value ([2]; plasma, individual HF dogs, 12 weeks after initiating therapy, 0.5 mg/kg/day) of the same substance?
**A.** 12.4 RLU×10^5/ml (2×) and 8.3 RLU×10^5/ml and 9.0 RLU×10^5/ml and 10.5 RLU×10^5/ml

**Q.** What about the “Reactive oxygen species concentration, 12 Wk, Mean” value ([2]; plasma, mean of 5 HF dogs, 12 weeks after initiating therapy, 0.5 mg/kg/day) of the same substance?
**A.** 10.5 RLU×10^5/ml

**Q.** What about the “Reactive oxygen species concentration, 6 Wk, Mean” value ([2]; plasma, mean of HF dogs, 6 weeks after initiating therapy, 0.5 mg/kg/day) of the same substance?
**A.** 18.4 RLU×10^5/ml

**Q.** What about the “Reactive oxygen species concentration, BL, Mean” value ([2]; plasma, peptide group mean (5 dogs), baseline (before HF and treatment)) of the same substance?
**A.** 5.3 RLU×10^5/ml

**Q.** What about the “Reactive oxygen species concentration, PRE, Mean” value ([2]; plasma, peptide group mean, heart failure prior to initiating therapy) of the same substance?
**A.** 20.7 RLU×10^5/ml

**Q.** And the “Reactive oxygen species concentration, BL” value [2, 5]?
**A.** 5.5 RLU×10^5/ml and 3.9 RLU×10^5/ml and 6.8 RLU×10^5/ml and 5.7 RLU×10^5/ml and 4.7 RLU×10^5/ml

**Q.** What about the “Reactive oxygen species concentration, PRE” value [2, 6] of the same substance?
**A.** 23.6 RLU×10^5/ml and 18.5 RLU×10^5/ml and 14.6 RLU×10^5/ml and 26.0 RLU×10^5/ml

**Q.** What about the “plasma IL-6 levels (FIG. 3), in words” value ([3]; treatment for 12 weeks) of the same substance?
**A.** near normal levels

**Q.** What about the “plasma IL-6 levels (FIG. 3), in words” value ([3]; treatment for six weeks) of the same substance?
**A.** reduced IL-6 levels

**Q.** What about the “IL-6 concentration, 6 Wk” value ([3]; plasma, individual HF dogs, 6 weeks after initiating therapy) of the same substance?
**A.** 18.8 pg/ml and 23.4 pg/ml and 24.3 pg/ml and 19.5 pg/ml and 19.6 pg/ml (2×) and 20.5 pg/ml

**Q.** What about the “IL-6 concentration, 12 Wk” value ([3]; plasma, individual HF dogs, 12 weeks after initiating therapy) of the same substance?
**A.** 11.7 pg/mL and 11.3 pg/mL and 13.6 pg/mL and 11.5 pg/mL and 12.5 pg/mL and 11.9 pg/mL and 11.4 pg/mL

**Q.** And the “IL-6 concentration, 6 Wk, Mean” value ([3]; plasma, mean of 7 HF dogs, 6 weeks after initiating therapy)?
**A.** 20.8 pg/mL

**Q.** What about the “IL-6 concentration, 12 Wk, Mean” value ([3]; plasma, mean of 7 HF dogs, 12 weeks after initiating therapy) of the same substance?
**A.** 12.0 pg/mL

**Q.** And the “IL-6 concentration, BL, Mean” value ([3]; plasma, peptide group mean (7 dogs), baseline (before HF and treatment))?
**A.** 10.1 pg/mL

**Q.** What about the “IL-6 concentration, PRE, Mean” value ([3]; plasma, peptide group mean (7 dogs), heart failure prior to initiating therapy) of the same substance?
**A.** 26.6 pg/mL

**Q.** And the “IL-6 concentration, BL” value [3, 5]?
**A.** 9.1 pg/mL and 5.8 pg/mL and 7.0 pg/mL and 12.6 pg/mL and 10.3 pg/mL and 12.5 pg/mL and 13.0 pg/mL

**Q.** What about the “IL-6 concentration, PRE” value [3, 6] of the same substance?
**A.** 29.3 pg/mL and 18.5 pg/mL and 29.2 pg/mL and 18.0 pg/mL and 31.2 pg/mL and 29.4 pg/mL and 30.4 pg/mL
